This is an account of results in patent US20150315241A1, “Antibiotic Peptides” (priority 2007, published 2015).

The test system of one series is S. typhi S5. The format is cell-based, Salmonella typhi. The note with it: S5, 20 h. In outline: (§1)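 Broth microdilution with two-fold peptide series, final 125 μg/mL down to 60 ng/mL, against overnight cultures adjusted to 5×10^6 CFU/mL in 1% TSB. Incubated 20 h at 37° C. Growth read by absorbance at 595 nm, triplicates.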
A further series has as its system E. coli 45849. Description: Growth inhibition assay (MIC). The class given is cell-based, Escherichia coli. The note with it: multidrug resistant strain; 1% TSB, 37° C., 20 hrs. A digest of the protocol: as §1
For series [1], the system named is S. enterica subsp. Enterica serovar. typhi G10215 ATCC 700408. The format is cell-based, Salmonella enterica. Particulars: ATCC 700408, 20 h. A digest of the protocol: as §1
For series [2], the system named is K. Pneumonia K6, ATCC 700603. As to the kind of experiment: Growth inhibition assay (MIC). The class given is cell-based, Klebsiella pneumoniae. The note with it: multidrug resistant strain; 1% TSB, 37° C., 20 hrs. In outline:
as §1

The test system of a further series is K. Pneumonia 123132. Description: Growth inhibition assay (MIC). The class given is cell-based, Klebsiella pneumoniae. The note with it: multidrug resistant strain; 1% TSB, 37° C., 20 hrs. A digest of the protocol:
as §1

The test system of another series is E. coli D31. The class given is cell-based, Escherichia coli. The note with it: D31, 20 h. A digest of the protocol: as §1
Another series can be described thus: in vitro. The class given is in vitro ADME, mouse. Particulars: 37° C.; for half-life at 0.061 mg/mL: 25% aqueous mouse serum, read-out: Half-life time. The method, then:
Serum stability studies were carried out in duplicate as described by Hoffmann et al.. Briefly, 28 μL of an aqueous peptide or peptidomimetics solution (0.5 mg/mL) was added to 0.2 mL freshly pooled 25% mouse serum (Sigma-Aldrich GmbH, Taufkirchen, Germany) in water. The mixtures were incubated at 37° C. under gentle stirring. The proteins were precipitated with 40 μL of 15% aqueous TCA after incubation times of 0, 0.5, 1, 2, 4 and 6 h at 0° C. for 20 min before centrifuged (13500×G) at 4° C. for 5 min. The supernatants of all samples (240 μL) were neutralized with 1 mol/L aqueous NaOH and immediately stored at −20° C. The supernatants were analyzed by RP-HPLC using a linear acetonitrile gradient as described above with 0.1% TFA as ion pair reagent. Collected fractions of the main peaks were further analyzed by tandem mass spectrometry (MALDI-TOF/TOF-MS, 4700 Proteomics Analyzer, Applied Biosystems GmbH, Weiterstadt, Germany) in positive ion reflector mode using α-cyanohydroxycinnamic acid (50% CH3CN in 0.1% aqueous TFA) as matrix to identify the degradation products of the peptides and peptidomimetics, i.e., metabolites, at the different time points. Serum control samples consisted of 200 μL of pooled 25% mouse serum in water, which were also precipitated with 40 μL 15% aqueous TCA, as described before. Peptide reference samples consisted of 28 μL of the peptide stock solution diluted in 0.2 mL water and 40 μL of 15% aqueous trichloroacetic acid (TCA).

Converted amounts (≈) assume the structure as drawn. Where a SMILES comes first, the peptide text is derived from it. Where no end group is shown, it is not given here. [ ]: non-standard residue; d: D form. Orn = NCCC[C@H](N)C(=O)O

Broadly, the half-life is the time in which the quantity being followed falls by half. Take GNNRPVYIPQPRPPHPRL-NH2 [compound 6]: the “MIC S. typhi S5” value in the series with S. typhi S5 was 0.125 µg/mL. The “MIC E. coli 45849” value in the series with E. coli 45849 was 0.5 µg/mL. The “MIC S. enterica subsp. Enterica serovar. typhi G10215 ATCC 700408” value in series [1] came out at 0.125 µg/mL. Besides, the “MIC K. Pneumonia K6, ATCC 700603” value in series [2] amounted to 16 µg/mL. Moreover, in the series on K. Pneumonia 123132, the “MIC K. Pneumonia 123132” value worked out at 16 µg/mL. The “MIC E. coli D31” value in the series with E. coli D31 stood at 1 µg/mL. The half-life at 0.061 mg/mL in “in vitro” amounted to 15 min.

Regarding `CC[C@H](C)[C@H](NC(=O)[C@H](Cc1ccc(O)cc1)NC(=O)[C@@H](NC(=O)[C@@H]1CCCN1C(=O)[C@H](CCCNC(=N)N)NC(=O)[C@H](CC(N)=O)NC(=O)[C@H](CC(N)=O)NC(=O)[C@H](CCCN)NC(C)=O)C(C)C)C(=O)N1CCC[C@H]1C(=O)N[C@@H](CCCNC(=N)N)C(=O)N1CCC[C@H]1C(=O)N[C@@H](CCCNC(=N)N)C(=O)N1CCC[C@H]1C(=O)N1CCC[C@H]1C(=O)N[C@@H](Cc1c[nH]cn1)C(=O)N1CCC[C@H]1C(=O)N[C@@H](CCCN)C(=O)N[C@@H](CC(C)C)C(N)=O` [compound 82] (Ac-[Orn]NNRPVYIPRPRPPHP[Orn]L-NH2), the “MIC S. typhi S5” value in the series on S. typhi S5 was determined as 8 µg/mL (≈ 3.65 µM). Moreover, the “MIC E. coli 45849” value in the series with E. coli 45849 is 16 µg/mL (≈ 7.3 µM). Moreover, the “MIC S. enterica subsp. Enterica serovar. typhi G10215 ATCC 700408” value in series [1] is 8 µg/mL (≈ 3.65 µM). Besides, the “MIC K. Pneumonia K6, ATCC 700603” value in series [2] came out at 32 µg/mL (≈ 14.6 µM). For the same molecule, in the series with K. Pneumonia 123132, the “MIC K. Pneumonia 123132” value was 8 µg/mL (≈ 3.65 µM). In addition, the “MIC E. coli D31” value against E. coli D31 worked out at 32 µg/mL (≈ 14.6 µM). Moreover, in “in vitro”, the half-life at 0.061 mg/mL is over 360 min. Also, the half-life entry in the series “in vitro” (25% aqueous serum) is listed as “The same stability”.
